Laboratory results: paper PMC7026080, “Phenotypic high-throughput screening platform identifies novel chemotypes for necroptosis inhibition” (Cell Death Discovery, 2020)

System: L929 cells
Assay: Long-term necroptosis inhibition in L929 cells + mTNF-α, 24 h, LDH release
Assay type: cell-based, murine
Settings: Mus musculus, 10 ng/mL mTNF-α, screening step 7, read-out: EC50 L929 + TNF-α (in vitro)
Description: The ability of compounds to interfere with specific steps of the necroptosis pathway, as well as inherent cytotoxicity and long-term necroptosis inhibitory effects were evaluated using in vitro necroptosis models (Fig. S1). Firstly, the 110 compounds were tested for their ability to modulate TNF-α-induced MLKL phosphorylation, a key necroptotic effector downstream of RIPK3[13]. […] Membrane integrity was evaluated by both AK and LDH release to exclude potential false positives.
Whole cell extracts were analysed by immunoblotting. […] Data represent mean values ± SEM of three independent experiments normalized to untreated control. Cell viability was assessed using a colorimetric-based readout for LDH release.
Whole cell extracts were analysed by immunoblotting. Data shown are representative blots and quantification of p-MLKL/MLKL ratio from one single experiment, in fold-change from control. […] Data represent mean values ± SEM of three independent experiments normalized to untreated control. Cell viability was assessed using a colorimetric-based readout for LDH release. c In vitro screening results for seven selected compounds at different stages of the HTS cascade. TEXT PRINTED IN THE PICTURE: (C) Nec-1: EC50 [μM] L929 + TNF-α (in vitro): 1.25 (Screening Step: 1; Time Point: 8 h); EC50 [μM] L929 + TNF-α (in vitro): 1.13 (Screening Step: 7; Time Point: 24 h); EC50 [μM] […]

Row | SMILES | EC50 [µM]
1 | CN1C(=O)C(Cc2c[nH]c3ccccc23)NC1=S (centres unmarked) [Nec-1, necrostatin-1] | 1.13
2 | O=C(c1cnn(Cc2ccccc2)c1)N1CCOc2ccccc2C1 [SN-6109] | 11.5
